# Laboratory results taken from patent US9056855B2, “Metalloenzyme inhibitor compounds” (Viamet Pharmaceuticals, Inc., priority 2010, dated 2015).
# Tests used:
# CYP17 = biological target: T1, CYP17 (Rattus norvegicus, UniProt P11715); assay: Inhibition of CYP17 (rat testicular microsomes); type: biochemical; conditions: pooled rat testicular microsomes
# T1 construct: from tissue; host or cells: rat testis (pooled microsomes)
# T1 sequence (P11715 1-507): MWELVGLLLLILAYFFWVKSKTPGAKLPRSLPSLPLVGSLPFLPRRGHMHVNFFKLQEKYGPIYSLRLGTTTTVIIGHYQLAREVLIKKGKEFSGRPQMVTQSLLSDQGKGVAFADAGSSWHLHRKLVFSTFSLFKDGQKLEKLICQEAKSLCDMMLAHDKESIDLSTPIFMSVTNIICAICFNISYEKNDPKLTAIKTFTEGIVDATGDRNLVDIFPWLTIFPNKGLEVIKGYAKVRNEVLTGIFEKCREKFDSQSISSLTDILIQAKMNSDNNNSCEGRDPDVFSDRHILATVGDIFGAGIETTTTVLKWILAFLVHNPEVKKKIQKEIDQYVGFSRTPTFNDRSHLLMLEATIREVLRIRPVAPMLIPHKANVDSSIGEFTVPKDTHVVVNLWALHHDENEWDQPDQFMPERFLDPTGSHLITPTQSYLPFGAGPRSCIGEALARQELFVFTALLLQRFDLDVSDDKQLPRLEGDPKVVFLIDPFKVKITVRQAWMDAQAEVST
# Description: CYP17 activity was assayed according to the following procedure. […] The individual test compound and isozyme inhibitor solutions were then diluted 20-fold with deionized water (50:950 v/v) to concentrations of 135, 27, 4.5, 0.9, 0.15, 0.03 and 0.005 μM. […] For active controls, blank test compound diluent was added in place of test compound solution.
# CYP2C9 = CYP2C9 (Homo sapiens, UniProt P11712); assay: Inhibition of liver cytochrome P450 enzymes, CYP2C9 (human liver microsomes)
# CYP2C9, sequence (P11712 whole entry): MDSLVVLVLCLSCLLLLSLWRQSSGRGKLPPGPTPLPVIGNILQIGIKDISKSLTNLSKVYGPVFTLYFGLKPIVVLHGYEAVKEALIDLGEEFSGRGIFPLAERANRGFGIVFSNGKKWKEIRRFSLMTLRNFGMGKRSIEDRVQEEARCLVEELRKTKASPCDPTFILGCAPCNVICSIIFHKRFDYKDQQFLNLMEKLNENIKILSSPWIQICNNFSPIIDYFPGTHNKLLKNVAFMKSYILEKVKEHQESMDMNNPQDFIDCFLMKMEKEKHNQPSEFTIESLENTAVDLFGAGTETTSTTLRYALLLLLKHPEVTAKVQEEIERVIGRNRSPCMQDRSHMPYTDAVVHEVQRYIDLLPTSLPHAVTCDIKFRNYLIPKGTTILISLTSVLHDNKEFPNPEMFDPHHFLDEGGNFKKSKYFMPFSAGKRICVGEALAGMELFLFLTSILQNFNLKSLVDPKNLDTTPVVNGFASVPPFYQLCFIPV
# Description: (§1) A. Inhibition of Liver Cytochrome P450 Enzymes
# (§2) Solutions of each test compound were separately prepared at concentrations of 20000, 6000, 2000, 600, 200, and 60 μM by serial dilution with DMSO:MeCN (50:50 v/v). The individual test compound solutions were then diluted 20-fold with DMSO:MeCN:deionized water (5:5:180 v/v/v) to concentrations of 1000, 300, 100, 30, 10, and 3 μM. […] The mixed inhibitor solutions were then diluted 20-fold with DMSO:MeCN:deionized water (5:5:180 v/v/v) to concentrations of 300, 100, 30, 10, 3, 1, 0.3, and 0.1 μM. The percent of organic solvent attributable to the test compound or inhibitor mixture in the final reaction mixture was 2% v/v.
# (§3) Pooled human liver microsome suspension (20 mg/mL) was diluted with phosphate buffer to obtain a 5 mg/mL suspension. A solution of NADPH was prepared in phosphate buffer at a concentration of 5 mM. Separate stock solutions of each substrate were prepared in DMSO:MeCN (50:50 v/v), mixed, and diluted in phosphate buffer to obtain a single solution containing each substrate at five times its experimentally determined Km concentration. The percent of organic solvent attributable to substrate mixture in the final reaction mixture was 1% v/v.
# (§4) Substrate solution and microsome suspension were combined in a 1:1 volume ratio, mixed, and distributed to reaction wells of a PCR plate. Individual test compound or combined inhibitor solutions at each concentration were added to the wells and mixed by repetitive aspirate-dispense cycles. […] Reaction mixtures were allowed to equilibrate at 37° C. for approximately two minutes before adding NADPH solution to initiate reaction, followed by pipette mixing of reaction mixture. Ten minutes after addition of NADPH, the reaction mixtures were quenched with cold acetonitrile. […] A portion of the supernatant was analyzed by gradient reverse-phase HPLC with detection by electrospray ionization triple quadrupole mass spectrometry in the positive ion mode.
# (§5) Data was fitted to sigmoid dose-response curves and the inhibitory potency of each test compound was determined as its IC50 value.
# CYP2C19 = CYP2C19 (Homo sapiens, UniProt P33261); assay: Inhibition of liver cytochrome P450 enzymes, CYP2C19 (human liver microsomes)
# CYP2C19, sequence (P33261 whole entry): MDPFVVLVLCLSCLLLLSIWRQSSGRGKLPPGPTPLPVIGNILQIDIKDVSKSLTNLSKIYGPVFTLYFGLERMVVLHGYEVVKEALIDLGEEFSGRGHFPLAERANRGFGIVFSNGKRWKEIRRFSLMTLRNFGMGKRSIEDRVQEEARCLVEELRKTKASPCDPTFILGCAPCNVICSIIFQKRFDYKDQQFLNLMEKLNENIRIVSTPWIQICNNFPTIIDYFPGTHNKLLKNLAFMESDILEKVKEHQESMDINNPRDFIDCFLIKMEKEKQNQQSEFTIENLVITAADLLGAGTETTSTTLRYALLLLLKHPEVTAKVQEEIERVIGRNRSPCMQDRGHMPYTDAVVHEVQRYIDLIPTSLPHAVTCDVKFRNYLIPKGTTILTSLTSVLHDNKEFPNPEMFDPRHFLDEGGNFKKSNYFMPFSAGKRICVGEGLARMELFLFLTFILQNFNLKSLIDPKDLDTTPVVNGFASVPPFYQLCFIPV
# Description: as §1, §2, §3, §4, §5
# CYP3A4 = CYP3A4 (Homo sapiens, UniProt P08684); assay: Inhibition of liver cytochrome P450 enzymes, CYP3A4 (human liver microsomes)
# CYP3A4, sequence (P08684 whole entry): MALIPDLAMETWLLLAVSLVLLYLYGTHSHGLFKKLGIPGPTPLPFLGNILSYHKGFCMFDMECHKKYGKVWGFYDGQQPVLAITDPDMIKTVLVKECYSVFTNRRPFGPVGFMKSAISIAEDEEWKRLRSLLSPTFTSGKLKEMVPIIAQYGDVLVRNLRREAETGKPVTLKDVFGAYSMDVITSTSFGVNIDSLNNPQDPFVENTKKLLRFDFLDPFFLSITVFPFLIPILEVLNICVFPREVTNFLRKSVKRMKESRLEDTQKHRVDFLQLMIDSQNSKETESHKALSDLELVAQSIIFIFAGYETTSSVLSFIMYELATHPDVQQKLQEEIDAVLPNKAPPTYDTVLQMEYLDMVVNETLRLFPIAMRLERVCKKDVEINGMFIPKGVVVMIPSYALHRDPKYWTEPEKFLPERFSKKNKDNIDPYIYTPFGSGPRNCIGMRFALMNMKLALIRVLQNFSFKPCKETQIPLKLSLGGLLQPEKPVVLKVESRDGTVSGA
# Description: as §1, §2, §3, §4, §5
SMILES,IC50 (CYP17),IC50 (CYP2C9),IC50 (CYP2C19),IC50 (CYP3A4)
"CC(C)C(O)(c1ccncn1)c1ccc2c(-c3cccs3)c(OC(F)F)ccc2n1 (centres unmarked) [Example 8, 1-(6-(difluoromethoxy)-5-(thiophen-2-yl)quinolin-2-yl)-2-methyl-1-(pyrimidin-4-yl)propan-1-ol]",1 µM,,,
"CC(C)C(O)(c1ccncn1)c1ccc2cc(OC(F)(F)F)ccc2n1 (centres unmarked) [Example 6, 2-methyl-1-(pyrimidin-4-yl)-1-(6-(trifluoromethoxy)quinolin-2-yl)propan-1-ol]",0.98 µM,,,
"CC(C)C(O)(c1ccncn1)c1ccc2cc(OC(F)F)ccc2n1 (centres unmarked) [Example 3, 1-(6-(Difluoromethoxy)quinolin-2-yl)-2-methyl-1-(pyrimidin-4-yl)propan-1-ol]",0.08 µM,3.5 µM,8.7 µM,30 µM
"CSc1ccc2nc(C(O)(c3ccncn3)C(C)C)ccc2c1 (centres unmarked) [Example 2, 2-Methyl-1-(6-(methylthio)quinolin-2-yl)-1-(pyrimidin-4-yl)propan-1-ol]",0.12 µM,3.3 µM,5.1 µM,19 µM
"CC(C)C(O)(c1ccncn1)c1ccc2c(C(F)(F)F)c(Cl)ccc2n1 (centres unmarked) [Example 5, 1-(6-chloro-5-(trifluoromethyl)quinolin-2-yl)-2-methyl-1-(pyrimidin-4-yl)propan-1-ol]",1.75 µM,,,

# Continued, values first:
IC50 (CYP17),IC50 (CYP2C9),IC50 (CYP2C19),IC50 (CYP3A4),SMILES
5.76 µM,,,,"CC(C)C(O)(c1ccncn1)c1ccc2c(C(F)(F)F)c(-c3cccs3)ccc2n1 (centres unmarked) [Example 4, 2-methyl-1-(pyrimidin-4-yl)-1-(6-(thiophen-2-yl)-5-(trifluoromethyl)quinolin-2-yl)propan-1-ol]"
0.6 µM,,,,"CC(C)C(O)(c1ccncn1)c1ccc2c(C(F)(F)F)c(OC(F)F)ccc2n1 (centres unmarked) [Example 7, 1-(6-(difluoromethoxy)-5-(trifluoromethyl)quinolin-2-yl)-2-methyl-1-(pyrimidin-4-yl)propan-1-ol]"
0.44 µM,7.8 µM,8.5 µM,18 µM,"COc1cc2ccc(C(O)(c3ccncn3)C(C)C)cc2cc1OC (centres unmarked) [Example 1, 1-(6,7-dimethoxynaphthalen-2-yl)-2-methyl-1-(pyrimidin-4-yl)propan-1-ol]"
